Measurements published in PubChem BioAssay (NCI).
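All cell lines were grown in 96-well plates and treated with compound for 48 hours. Definition used: TGI = concentration required for complete inhibition of growth.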

Tests used:
Assay in all cases: DTP human tumour cell line panel, 48 h
NCI-H23 lung = test system: NCI-H23 lung
HT29 colon = test system: HT29 colon
SNB-19 CNS = test system: SNB-19 CNS
UACC-62 melanoma = test system: UACC-62 melanoma
SF-295 CNS = test system: SF-295 CNS
SK-MEL-2 melanoma = test system: SK-MEL-2 melanoma
HL-60(TB) leukemia = test system: HL-60(TB) leukemia
NCI-H460 lung = test system: NCI-H460 lung
COLO 205 colon = test system: COLO 205 colon
U251 CNS = test system: U251 CNS
SW-620 colon = test system: SW-620 colon
A549 NSCLC = test system: A549 NSCLC
RPMI-8226 leukemia = test system: RPMI-8226 leukemia
HCT-15 colon = test system: HCT-15 colon
RXF 393 renal = test system: RXF 393 renal
OVCAR-3 ovarian = test system: OVCAR-3 ovarian
UACC-257 melanoma = test system: UACC-257 melanoma
DU-145 prostate = test system: DU-145 prostate
HOP-92 NSCLC = test system: HOP-92 NSCLC

Row | Structure (SMILES) | TGI (NCI-H23 lung) [µM] | TGI (HT29 colon) [µM] | TGI (SNB-19 CNS) [µM] | TGI (UACC-62 melanoma) [µM] | TGI (SF-295 CNS) [µM] | TGI (SK-MEL-2 melanoma) [µM] | TGI (HL-60(TB) leukemia) [µM] | TGI (NCI-H460 lung) [µM] | TGI (COLO 205 colon) [µM] | TGI (U251 CNS) [µM] | TGI (SW-620 colon) [µM] | TGI (A549 NSCLC) [µM] | TGI (RPMI-8226 leukemia) [µM] | TGI (HCT-15 colon) [µM] | TGI (RXF 393 renal) [µM] | TGI (OVCAR-3 ovarian) [µM] | TGI (UACC-257 melanoma) [µM] | TGI (DU-145 prostate) [µM] | TGI (HOP-92 NSCLC) [µM]
1 | C=C1[C@H](OCC(C)C)[C@@H](O)[C@@H](OC(=O)c2cccnc2)C(C)(C)/C=C/[C@H](C)[C@H](OC(C)=O)[C@@]2(O)C[C@@](C)(OC(C)=O)[C@H](OC(=O)c3ccccc3)[C@@H]2[C@H]1OC(C)=O | > 3.13 | 1.17 | > 5 | > 5 | > 4.14 | > 3.78 | > 2.09 | 1.52 | > 5 | > 5 | > 5 | > 5 | 3.35 | 4.97 | > 5 | > 3.67 | > 5 | > 5 | > 5
2 | C=C1C[C@@H]2O[C@H]3[C@H]4[C@@H](C[C@@H](C)[C@@H](OC(C)=O)[C@H]42)[C@@H](C)CO[C@@]3(C)[C@H](OC(=O)CCCCCCC)C[C@H]1O | 40.2 | 46.2 | 32.4 | 31.4 | 36.4 | 36.7 | 44.1 | 30.1 | 29.9 | 30.6 | 40.3 | 34 | 42.6 | 30.4 | 36.1 | 37.2 | 32.6 | 28.3 | 30.4
3 | C/C=C/C=C\C=C/C(O)C(C)C(CCC(C)C1OC(=O)C=CC1C)OP(=O)(O)O (stereo unspecified) | 4.83 | 1.08 | 1.99 | 1.11 | 1.01 | 2.32 | 0.17 | 1.76 | 0.788 | 2.5 | 1.67 | 3.83 | 0.491 | 1.97 | 1.38 | 0.393 | 3.02 | 1.76 | 0.881
4 | O=C(NCCCNCCN1C(=O)c2cccc3cc([N+](=O)[O-])cc(c23)C1=O)c1cc(-c2ccccc2)nc2ccccc12 | 7.55 | 2.84 | 18.9 | 17.4 | 14.8 | 12.1 | 5.76 | 12.6 | 4.26 | 9.12 | 5.37 | 15.7 | 7.66 | 17.2 | 3.34 | 18.9 | 3.95 | 17.3 | 15
5 | CCOC(=O)C(NC(C)=O)(Nc1ccc(S(N)(=O)=O)cc1)C(F)(F)F (stereo unspecified) | > 100 | > 100 | > 100 | – | > 100 | > 100 | > 100 | > 100 | > 100 | > 100 | > 100 | > 100 | > 100 | > 100 | > 100 | > 100 | > 100 | > 100 | > 100
6 | Cc1cc2nc(C=C(C(F)(F)F)C(F)(F)F)sc2cc1C | 3.5 | 9.93 | 9.89 | 4.98 | 13.4 | 5.27 | 3.86 | 16 | 13.7 | 4.21 | 10.7 | 26.7 | 1.41 | 8.91 | 3.68 | 5.63 | 13.6 | 10.2 | 16.2
7 | CC(C)(C)C1CCC2c3c([nH]c4ccccc34)C3C(=O)N(c4ccccc4[N+](=O)[O-])C(=O)C3C2C1 (stereo unspecified) | 22.1 | 20.1 | 82.5 | 28.2 | 31.2 | 35.6 | 27.5 | 27.6 | 24.1 | 40.3 | 27 | 33.9 | > 100 | 37.6 | 19 | 28.6 | 90.6 | 22.4 | 9.1
8 | COC(=O)c1ccccc1CC1Cc2cc3c(cc2C1=O)CCC3 (stereo unspecified) | 75.1 | 41.4 | > 100 | 69.6 | 77.4 | 19.7 | 27.6 | > 71.4 | 28.4 | 42.3 | > 100 | 72.8 | 54.5 | > 67.3 | 17.1 | > 76.5 | 71.5 | > 100 | 42.4
9 | O=C1OC(C2Cc3ccc4c(c3C2=O)CCC4)c2ccccc21 (stereo unspecified) | > 100 | > 100 | > 100 | > 100 | > 100 | > 100 | 83.1 | > 100 | 45.8 | > 100 | > 100 | > 100 | 85.1 | > 100 | > 100 | > 100 | > 100 | > 100 | > 100
10 | COc1ccc2c(c1)-c1c(c3cc(OC)ccc3n1CCCN(C)C)CC2 | 37 | 13.9 | 34 | 20.6 | 16.8 | 31 | 55.3 | 42.9 | 5.9 | 27 | 32.1 | 50.6 | 26 | 32.1 | 20.2 | 29.6 | 11.6 | 33.4 | 33.8
11 | CCOC(=O)CC1(Cc2ccc(OCc3ccccc3)cc2)C(=O)OC(c2ccccc2)N1C(=O)c1ccccc1 (stereo unspecified) | > 100 | > 100 | > 100 | > 100 | > 100 | > 100 | > 100 | 62.1 | > 100 | > 100 | > 100 | > 100 | > 100 | > 100 | > 100 | > 100 | > 100 | > 100 | > 100
12 | O=[N+]([O-])c1cccc(-c2ncc3c(n2)-c2ccccc2C3)c1 | > 100 | > 100 | 72.4 | > 100 | > 100 | > 100 | > 100 | > 100 | > 100 | > 100 | > 100 | > 100 | > 100 | > 100 | > 100 | – | > 100 | > 100 | > 100
